What is called inhibition is the percentage by which the read-out fell short of the control. As usually defined, the Ki is the equilibrium dissociation constant of an inhibitor or competing ligand from its target. A lower Ki goes with tighter binding. What is called EC50 is the concentration at which the effect is half-maximal.

These results are taken from patent US8153781B2, “Dendrimer conjugates of agonists and antagonists of the GPCR superfamily” (The United States of America as represented by the …, priority 2007, dated 2012).

Molecules are shown by their SMILES.

In test [1] the target is T1, hA2A AR (Homo sapiens, UniProt P29274).
T1 sequence (P29274 whole entry): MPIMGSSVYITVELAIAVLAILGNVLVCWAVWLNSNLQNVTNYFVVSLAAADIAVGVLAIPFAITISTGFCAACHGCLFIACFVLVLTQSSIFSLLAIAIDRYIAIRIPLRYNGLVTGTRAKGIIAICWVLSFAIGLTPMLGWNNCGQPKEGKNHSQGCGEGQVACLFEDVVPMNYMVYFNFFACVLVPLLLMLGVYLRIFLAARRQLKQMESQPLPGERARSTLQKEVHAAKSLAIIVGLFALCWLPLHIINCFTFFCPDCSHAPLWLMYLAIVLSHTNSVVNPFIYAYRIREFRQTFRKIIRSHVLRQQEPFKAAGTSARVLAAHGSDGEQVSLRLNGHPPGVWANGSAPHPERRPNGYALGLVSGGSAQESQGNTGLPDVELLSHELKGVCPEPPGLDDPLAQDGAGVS
Test [2] addresses T1, hA2A AR. Description: Radioligand membrane binding assay, A2A AR. The arrangement: expressed in transfected cells. The settings on record: for Ki: Table 3, expressed in CHO cells. As to the method:
(§1) Radioligand Membrane Binding Experiments. Radioligand binding assays were performed for A1, A2A, and A3 ARs. Each tube in the binding assay contained 100 μL of membrane suspension (20 μg of protein), 50 μL of agonist radioligand, and 50 μL of increasing concentrations of the test ligands in Tris-HCl buffer (50 mM, pH 7.5) containing 10 mM MgCl2. Nonspecific binding was determined using […] 5′-N-ethylcarboxamidoadenosine diluted with the buffer. The mixtures were incubated at 25° C. for 60 min. Binding reactions were terminated by filtration through Whatman GF/B filters under a reduced pressure using a MT-24 cell harvester (Brandell, Gaithersburg, Md.). Filters were washed three times with 5 mL of 50 mM ice-cold Tris-HCl buffer (pH 7.5). […] After the filters were washed, the radioactivity was measured using a Beckman γ-counter. For the A1 and A2A assays, the radioactive agonists [^3H] N^6-chlorocyclopentyladenosine and [^3H] 2-(4-(2-carboxyethyl)phenylethylamino)-5′-N-ethylcaboxamido-adenosine were used, respectively. After the filters were washed, they were placed in scintillation vials containing 5 mL of Hydrofluor scintillation buffer and counted using a Perkin Elmer Liquid Scintillation Analyzer. The Ki value was determined using GraphPad Prism for all assays.

The target in the next test is T2, hA1 AR (Homo sapiens, UniProt P30542).
T2 construct: expressed in transfected cells; host or cells: CHO cells
T2 sequence (P30542 1-326): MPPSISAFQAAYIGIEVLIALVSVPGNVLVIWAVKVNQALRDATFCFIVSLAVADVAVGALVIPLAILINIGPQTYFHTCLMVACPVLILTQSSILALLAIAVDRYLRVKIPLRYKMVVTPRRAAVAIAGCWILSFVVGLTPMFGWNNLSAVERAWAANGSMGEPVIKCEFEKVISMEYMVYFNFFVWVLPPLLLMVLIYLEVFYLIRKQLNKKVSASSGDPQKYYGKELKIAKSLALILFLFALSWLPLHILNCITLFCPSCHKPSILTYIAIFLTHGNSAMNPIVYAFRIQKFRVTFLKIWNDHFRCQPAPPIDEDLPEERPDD
Description: Radioligand membrane binding assay, A1 AR. The settings on record: Table 3; expressed in CHO cells.

Test [3] deals with T3, hA3 AR (Homo sapiens, UniProt P0DMS8).
T3 construct: expressed in transfected cells; host or cells: CHO cells
T3 sequence (P0DMS8 1-318): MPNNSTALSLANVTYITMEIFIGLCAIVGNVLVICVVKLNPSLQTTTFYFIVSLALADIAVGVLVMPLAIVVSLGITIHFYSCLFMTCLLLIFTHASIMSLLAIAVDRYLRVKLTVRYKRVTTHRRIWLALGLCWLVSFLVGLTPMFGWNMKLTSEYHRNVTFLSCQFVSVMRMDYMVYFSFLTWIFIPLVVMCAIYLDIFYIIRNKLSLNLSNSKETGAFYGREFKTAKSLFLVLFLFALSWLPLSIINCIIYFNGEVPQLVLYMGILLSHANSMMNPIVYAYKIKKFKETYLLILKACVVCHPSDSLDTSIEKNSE
Description: Calcium protocol, CHO cells expressing human A3 receptor. It counts as cell-based. How it is done:
Calcium Protocol. Chinese Hamster Ovary (CHO) cells stably expressing the human A3 receptor were grown in Dulbecco's Modified Eagle Medium/F12 (Sigma) supplemented with 10% fetal bovine serum, antibiotics, and glutamine. Each assay was completed by passaging the CHO A3 cells into 96 well plates and incubating overnight at 37° C. with 5% CO2. The FLIPR Calcium 4 Kit provided by Molecular Devices was used as described previously (Niebauer). Briefly, the media was removed from the cells, and 30 μl of the Calcium 4 fluorescent dye supplemented with 2.5 mM probenecid was added to each well. The cells were incubated at room temperature for 45 minutes. The compound plate was prepared by diluting the compounds to 10^−5-10^−9 M in Hanks Buffer. Samples were run in duplicate on the Molecular Devices FlexStation I at room temperature. […] Increases in intracellular calcium are reported as the relative fluorescence units after exposure minus the basal fluorescence value before exposure. Each experiment was repeated at least three times.

In test [4] the target is T3, hA3 AR. Description: Radioligand membrane binding assay, A3 AR. The following applies: Table 3; expressed in CHO cells. As to the method: as §1
Test [5] deals with T1, hA2A AR. As to the kind of experiment: Functional assay at hA2A AR (Table 3). It counts as cell-based. The arrangement: expressed in transfected cells. The settings on record: Table 3 functional assay.
Test [6] concerns the target T4, A1AR (Homo sapiens, UniProt P30542).
T4 construct: expressed in transfected cells; host or cells: CHO cells
T4 sequence (P30542 1-326): T2 sequence (P30542 1-326)
As to the kind of experiment: Binding at A1AR with [3H]CCPA, CHO cells.

The next test addresses T5, A2AAR (Homo sapiens, UniProt P29274).
T5 construct: expressed in transfected cells; host or cells: CHO
Description: Binding at A2AAR with [3H]CGS21680, HEK cells.

Test [7] addresses T4, A1AR. As to the kind of experiment: [35S]GTPγS binding, A1AR. The settings on record: CHO cells expressing A1AR. The format is biochemical. On the technique in general: GTPγS resists hydrolysis and so accumulates on activated G proteins.
Description: [^35S]GTPγS binding was measured in 200 μl of buffer containing 50 mM Tris-HCl (pH 7.4), 1 mM EDTA, 1 mM MgCl2, 10 μM GDP, 1 mM dithiothreitol, 100 mM NaCl, 3 units/ml adenosine deaminase, 0.2 nM [^35S]GTPγS, 0.004% CHAPS, 0.5% bovine serum albumin and increasing concentrations of the ligands. Samples were started by addition of the membrane suspension (5-10 μg protein/tube) to the test tubes and incubated at 25° C. for 30 min. The assay was terminated by rapid filtration through Whatman GF/B filters, pre-soaked in 50 mM Tris-HCl (pH 7.4) containing 5 mM MgCl2 and 0.02% CHAPS. Non-specific binding of [^35S] GTPγS was measured in the presence of 10 μM unlabelled GTPγS. After the filters were washed, they were placed in scintillation vials containing 5 mL of Hydrofluor scintillation buffer and counted using a Perkin Elmer Liquid Scintillation Analyzer.
For test [8], the target named is T6, A3 adenosine receptor (Homo sapiens, UniProt P0DMS8).
T6 sequence (P0DMS8 1-318): T3 sequence (P0DMS8 1-318)
Description: Binding assay at A3 adenosine receptor (Table 7). How it is done:
CHO (Chinese hamster ovary) cells expressing the recombinant human ARs were cultured in Dulbecco's modified Eagle medium (DMEM) and F12 (1:1) supplemented with 10% fetal bovine serum, 100 units/mL penicillin, 100 μg/mL streptomycin, and 2 μmol/mL glutamine. After harvesting, cells were homogenized and suspended. Cells were then centrifuged at 500 g for 10 min, and the pellet was resuspended in 50 mM Tris-HCl buffer (pH 7.5) containing 10 mM MgCl2. The suspension was homogenized and was then recentrifuged at 20 000 g for 20 min at 4° C. The resultant pellets were resuspended in Tris buffer, incubated with adenosine deaminase for 30 min at 37° C., and the suspension was stored at −80° C. until the binding experiments. The protein concentration was measured using the Bradford assay.
(§2) This Example illustrates a preparation and some of the properties of conjugate 117 in accordance with an embodiment of the invention.

Another test deals with T7, A1 adenosine receptor (Homo sapiens, UniProt P30542).
T7 sequence (P30542 1-326): T2 sequence (P30542 1-326)
As to the kind of experiment: cAMP inhibition assay, A1 adenosine receptor. It counts as cell-based. The following applies: Table 8.
Source text: as §2

Test [9] addresses T6, A3 adenosine receptor. Description: cAMP inhibition assay, A3 adenosine receptor. It counts as cell-based. The settings on record: Table 8.
Source text: as §2

T5 sequence (P29274 whole entry): as the sequence (P29274 whole entry) above
Description for hA1 AR: Radioligand Membrane Binding Experiments. […] Each tube in the binding assay contained 100 μL of membrane suspension (20 μg of protein), 50 μL of agonist radioligand, and 50 μL of increasing concentrations of the test ligands in Tris-HCl buffer (50 mM, pH 7.5) containing 10 mM MgCl2. Nonspecific binding was determined using 10 mM 5′-N-ethylcarboxamidoadenosine diluted with the buffer. The mixtures were incubated at 25° C. for 60 min. Binding reactions were terminated by filtration through Whatman GF/B filters under a reduced pressure using a MT-24 cell harvester (Brandell, Gaithersburg, Md.). Filters were washed three times with 5 mL of 50 mM ice-cold Tris-HCl buffer (pH 7.5). […] After the filters were washed, the radioactivity was measured using a Beckman γ-counter. For the A1 and A2A assays, the radioactive agonists [^3H] N^6-chlorocyclopentyladenosine and [^3H] […] The Ki value was determined using GraphPad Prism for all assays.

Take `CCNC(=O)[C@H]1O[C@@H](n2cnc3c(N)nc(NCCc4ccc(CCC(=O)NCCN)cc4)nc32)[C@H](O)[C@@H]1O` [compound 5, 2-[4-(2-aminoethylaminocarbonylethyl)phenylethylamino]-5′-N-ethylcarboxamidoadenosine]: the “hA2A, EC50 (class symbol)” value on hA2A AR [1] is “FA (Full agonist at 10 μM with >90% of effect of NECA)”.

With `CCNC(=O)[C@H]1OC(n2cnc3c(N)nc(NCCc4ccc(CCC(=O)NCCNC(=S)Nc5ccc(N=C=S)cc5)cc4)nc32)[C@@H](O)C1O` (stereo partly shown) [compound 6], on hA2A AR [2] (read-out: inhibition of binding at the hA2A AR), the inhibition at 10 µM came out at 58%.

On to `CCNC(=O)[C@H]1OC(n2cnc3c(N)nc(NCCc4ccc(CCC(=O)NCCNC(=S)Nc5ccc(NC(=S)NCCNC(C)=O)cc5)cc4)nc32)[C@@H](O)C1O` (stereo partly shown) [compound 7], for which the inhibition constant Ki on hA1 AR came out at 0.84 ± 0.1 µM; on hA2A AR [2] it was 0.07 µM. In addition, the EC50 on hA3 AR [3] came out at 0.375 ± 0.04 µM.

Consider `CCNC(=O)[C@H]1OC(n2cnc3c(N)nc(NCCc4ccc(CCC(=O)NCCNC(C)=O)cc4)nc32)[C@@H](O)C1O` (stereo partly shown) [compound 16], for which the Ki at hA1 AR is 0.984 ± 0.223 µM; at hA3 AR [4], 0.058 ± 0.024 µM; on hA2A AR [2], 0.11 ± 0.015 µM. For the same compound, the figures for the EC50 at hA3 AR [3] and on hA2A AR [5] were 0.725 ± 0.11 µM and 0.051 ± 0.008 µM, respectively.

As to `NCCNC(=O)Cc1ccc(NC(=O)Cc2ccc(Nc3ncnc4c3ncn4[C@@H]3O[C@H](CO)[C@@H](O)[C@H]3O)cc2)cc1` [compound 101, N^6-[4-[[[4-[[[(2-Aminoethyl)amino]carbonyl]methyl]-anilino]carbonyl]methyl]phenyl]adenosine, reference compound], the values for the Ki at A1AR [6] and at A2AAR were 0.0104 ± 0.0038 µM and 0.37 ± 0.1 µM, respectively. Moreover, it took 0.12 ± 0.013 µM to reach a half-maximal effect at A1AR [7] (EC50).

For the compound `O=C(O)CCc1ccc(NC(=S)NCCNC(=O)Cc2ccc(NC(=O)Cc3ccc(Nc4ncnc5c4ncn5[C@@H]4O[C@H](CO)[C@@H](O)[C@H]4O)cc3)cc2)cc1` [compound 104], the Ki was 0.03 µM at A1AR [6] and 0.8 ± 0.36 µM on A2AAR. Moreover, the EC50 at A1AR [7] is 3 ± 1.3 µM.

On to `NCCNCCNC(=O)Cc1ccc(NC(=O)Cc2ccc(Nc3ncnc4c3ncn4[C@@H]3O[C@H](CO)[C@@H](O)[C@H]3O)cc2)cc1` [compound 107, N-(2-Aminoethyl)-ADAC], for which the Ki at A1AR [6] is 0.043 µM; on A2AAR it was 0.3 ± 0.02 µM; at A3 adenosine receptor [8] it was 0.01 ± 0.002 µM; at A1 adenosine receptor it was 0.072 µM; on A3 adenosine receptor [9] it was 0.061 µM. The EC50 at A1AR [7] stood at 0.05 µM.
